Results as given in PubChem BioAssay (NCI).
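48-hour exposure; five concentrations; linearly interpolated endpoints. TGI: concentration producing complete growth inhibition.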

Columns and labels:
Assay in all cases: NCI tumour cell line growth inhibition, 48 h
UACC-62 melanoma = system: UACC-62 melanoma
NCI-H522 lung = system: NCI-H522 lung
MOLT-4 leukemia = system: MOLT-4 leukemia
HOP-92 NSCLC = system: HOP-92 NSCLC
HCT-15 colon = system: HCT-15 colon
MDA-MB-435 = system: MDA-MB-435
T-47D breast = system: T-47D breast
K-562 leukemia = system: K-562 leukemia
MDA-MB-231 breast = system: MDA-MB-231 breast
NCI-H226 lung = system: NCI-H226 lung
RPMI-8226 leukemia = system: RPMI-8226 leukemia
SN12C renal = system: SN12C renal
CAKI-1 renal = system: CAKI-1 renal
SNB-19 CNS = system: SNB-19 CNS
EKVX NSCLC = system: EKVX NSCLC
OVCAR-8 ovarian = system: OVCAR-8 ovarian
IGROV1 ovarian = system: IGROV1 ovarian
HL-60(TB) leukemia = system: HL-60(TB) leukemia
CCRF-CEM leukemia = system: CCRF-CEM leukemia
MDA-N = system: MDA-N

Compound	TGI (UACC-62 melanoma)	TGI (NCI-H522 lung)	TGI (MOLT-4 leukemia)	TGI (HOP-92 NSCLC)	TGI (HCT-15 colon)	TGI (MDA-MB-435)	TGI (T-47D breast)	TGI (K-562 leukemia)	TGI (MDA-MB-231 breast)	TGI (NCI-H226 lung)	TGI (RPMI-8226 leukemia)	TGI (SN12C renal)	TGI (CAKI-1 renal)	TGI (SNB-19 CNS)	TGI (EKVX NSCLC)	TGI (OVCAR-8 ovarian)	TGI (IGROV1 ovarian)	TGI (HL-60(TB) leukemia)	TGI (CCRF-CEM leukemia)	TGI (MDA-N)
O=c1cc(-c2ccccc2)[nH]c2ccc(N3CCOCC3)cc12	> 100 µM	0.404 µM	> 100 µM	44.1 µM	> 100 µM	> 100 µM	> 100 µM	> 100 µM	> 100 µM	0.253 µM	> 100 µM	> 95.3 µM	> 89.2 µM	> 87.5 µM	> 100 µM	> 100 µM	> 100 µM			
Cc1ccc(NCC(=O)N2CC(=O)Nc3ccccc32)c(C)c1	> 100 µM	> 100 µM	> 100 µM	> 100 µM	> 100 µM			> 100 µM		> 100 µM	> 100 µM	> 100 µM	> 100 µM	> 100 µM	> 100 µM	> 100 µM		> 100 µM	> 100 µM	
CC(C)Oc1c(O)c2c3c(oc(=O)n3C=CC2c2ccccc2)c1OC(C)C (configuration not stated)			> 100 µM	> 100 µM	33.7 µM		> 100 µM		> 100 µM	> 100 µM		> 100 µM	67.7 µM	> 100 µM	74 µM	> 100 µM	83.1 µM	91.4 µM		> 100 µM
Cc1c2ccncc2c(C)c2c1[nH]c1ccc(OC(C)C)cc12		3.06 µM	2.97 µM	3.22 µM	2.74 µM			4.4 µM		3.05 µM	5.12 µM	2.45 µM	2.96 µM	3.12 µM	2.81 µM	2.28 µM	2.79 µM	4.46 µM	7.68 µM	
COc1ccc(CCCCl)c(C2=NCCc3cc(OC)c(OC)cc32)c1	> 100 µM	> 100 µM	> 100 µM	> 100 µM	> 100 µM	> 100 µM	> 100 µM	> 100 µM	> 100 µM	> 100 µM	28.5 µM	> 100 µM	> 100 µM	> 100 µM	> 100 µM	> 100 µM	> 100 µM	> 100 µM	> 100 µM	
O=[N+]([O-])C(=C(Nc1ccccc1)Nc1ccccc1)/C(Cl)=C(\Cl)[N+](=O)[O-]	18.7 µM		17.7 µM		12.3 µM	10.5 µM	7.43 µM	> 100 µM	10.8 µM	34.5 µM	19.2 µM	7.77 µM	3.18 µM	26.8 µM	19.5 µM	2.77 µM			92.5 µM	10.5 µM
CC1=NN(c2cccc(Cl)c2)C(=N/c2nc3ccccc3s2)/C1=C\c1ccc(Cl)cc1		35.7 µM	73.7 µM	36.1 µM	28.9 µM		> 100 µM	> 100 µM	49.2 µM	43.8 µM	> 100 µM				> 100 µM	39.8 µM	33.1 µM	54.5 µM	96.9 µM	56.1 µM
N#CC(C#N)=C1c2ccccc2C(=NN)c2ccccc21	> 100 µM	> 100 µM	> 100 µM	> 100 µM	> 100 µM	> 100 µM		> 100 µM	> 100 µM	> 100 µM	> 100 µM	> 100 µM	> 100 µM	> 100 µM		> 100 µM	> 100 µM		> 100 µM	> 100 µM
COc1cc(C=O)cc(/C=N/n2c3ccccc3c3ccccc32)c1O	> 100 µM	73.2 µM	76.8 µM	9.58 µM	> 100 µM	47.5 µM	> 100 µM	67.7 µM	> 100 µM	> 100 µM	46.2 µM	> 100 µM	> 100 µM	> 100 µM	> 100 µM	> 100 µM		> 100 µM	> 100 µM	
CC(C)=CC1C[C@H](C2CC=C3C2(C)CCC2[C@@]3(C)C(=O)CC3[C@]2(C)C=CC(=O)[C@]3(C)CO)CO1 (some centres not stated)	31 µM	8.71 µM	8.43 µM	41.3 µM	40.5 µM			31.3 µM			15.3 µM	63.2 µM	49 µM	42.9 µM	55.1 µM	> 24.4 µM	29.5 µM	9.42 µM	8.71 µM	
O=C(O)c1cc(CC2Cc3cc4c(cc3C2=O)CCC4)cc2c1CCC2 (configuration not stated)	> 100 µM	> 100 µM	> 100 µM		> 100 µM	> 100 µM	> 100 µM	> 100 µM	> 100 µM	> 100 µM	> 100 µM	> 100 µM	> 100 µM	> 100 µM	> 100 µM	> 100 µM	> 100 µM	> 100 µM	> 100 µM	
COC(=O)/C=C\COCC1C2CCC(=O)C21 (configuration not stated)	> 25 µM	7.83 µM	20.7 µM	10.6 µM	> 25 µM	> 25 µM		> 25 µM	> 25 µM	> 25 µM	> 25 µM	> 25 µM	1.29 µM	> 25 µM	> 25 µM	> 25 µM	> 25 µM		16.2 µM	> 25 µM
COc1cc(C(=O)/C=C/c2ccc(OCC#N)cc2)cc(OC)c1OC	48.5 µM	35.9 µM	90.7 µM	35.9 µM	40.3 µM	40.2 µM	36.5 µM	86.9 µM		58.5 µM		36.3 µM	69.6 µM	54.4 µM	> 100 µM	> 100 µM	> 100 µM		65.1 µM	> 100 µM
COc1ccc(/C=C2\CCC(CNc3ccc(S(N)(=O)=O)cc3)C2=O)cc1 (configuration not stated)	50.6 µM	10.6 µM	> 44.2 µM	22.5 µM	18.2 µM	41.3 µM	43.1 µM	3.74 µM	35.5 µM	> 100 µM		35.9 µM	19.3 µM	> 65.9 µM	> 69.2 µM	35.4 µM	43.4 µM	7.73 µM	5.98 µM	
